We go through 17 compounds from patent publication US5159061A, “Atrial natriuretic peptide derivative” (Takeda Chemical Industries, Ltd., priority 1986, dated 1992).

Where two headings read alike, the source gives them in different places. Where a SMILES comes first, the peptide text is derived from it. Bridges are numbered along the chain shown (N, C = ends). [ ]: non-standard residue; d: D form. Aib = CC(C)(N)C(=O)O

For series [1] the following is noted: the molecule shown is the open-chain precursor, disulfide bond, 2 steps.
The test system of series [2] is spontaneously hypertensive rats (SHR). As to the kind of experiment: Hypotensive action in spontaneously hypertensive rats (SHR). In kind it is in vivo, rat. Particulars: male SHR, 20 weeks old; intravenous 100 μg/250 μl/kg in physiological saline; maximum decrease in blood pressure, difference from preadministration value. On the procedure: Hypotensive action in spontaneously hypertensive rats (SHR)
Three male SHRs at the age of 20 weeks in each group were anesthetized with pentobarbital (50 mg/kg, intraperitoneal administration); SP-10 and SP-45 polyethylene tubes (manufactured by Natsume Seisakusho, Japan) were inserted respectively into the groin artery and vein, and through each of these a cannula was passed to the neck site via the back subcutaneous tissue, and one end of the cannula was fixed there. The rats were used in experiments the following day. As a α-hANP derivatives, [Aib^6 ]-α-hANP[6-28] obtained in Example 1 and [Aib^6,Ile^12 ]-α-hANP[6-28] obtained in Example 8, and as a control, α-hANP[7-28], in solution in physiological saline, were each intravenously administered in the ratio of 100 μg/250 μl/kg of body weight. Hypotensive activities are shown as a degree of the maximum decrease in blood pressure (difference from the preadministration value) that occurred after the administration of the subject compound.

The mark [3] stands for this setting: 53-membered ring, air (after HF deprotection).
The mark [4] stands for this setting: 53-membered ring, air/NH4OAc/NH3 pH 6.9, water, 0.052 mM, 25.0 °C.

“H-Cys-Phe-βAla-Arg-Met-Asp-Arg-Ile-Gly-Ala-Gln-Ser-Gly-Leu-Gly-Cys-Asn-Ser-Phe-Arg-Tyr-OH” registered a ring closure, isolated yield in series [1] (51-membered ring, air/NH4OAc/NH3 pH 6.9, water, 0.056 mM, 25.0 °C) of 17%.
On to “H-Cys-Phe-Gaba-Arg-Met-Asp-Arg-Ile-Gly-Ala-Gln-Ser-Gly-Leu-Gly-Cys-Asn-Ser-Phe-Arg-Tyr-OH”, for which, in series [1] (52-membered ring), the ring closure, isolated yield turned out to be 20%.
Turning to “H-Cys-Phe-Ava-Arg-Met-Asp-Arg-Ile-Gly-Ala-Gln-Ser-Gly-Leu-Gly-Cys-Asn-Ser-Phe-Arg-Tyr-OH”, the ring closure, isolated yield in series [1] (53-membered ring, air/NH4OAc/NH3 pH 6.9, water, 0.055 mM, 25.0 °C) turned out to be 30%.
Take `CC[C@H](C)[C@@H]1NC(=O)[C@H](CCCNC(=N)N)NC(=O)[C@H](CC(=O)O)NC(=O)[C@H]([C@@H](C)CC)NC(=O)[C@H](CCCNC(=N)N)NC(=O)CNC(=O)CNC(=O)[C@H](Cc2ccccc2)NC(=O)[C@@H](NC(=O)C(C)(C)N)CSSC[C@@H](C(=O)N[C@@H](CC(N)=O)C(=O)N[C@@H](CO)C(=O)N[C@@H](Cc2ccccc2)C(=O)N[C@@H](CCCNC(=N)N)C(=O)N[C@@H](Cc2ccc(O)cc2)C(=O)O)NC(=O)CNC(=O)[C@H](CC(C)C)NC(=O)CNC(=O)[C@H](CO)NC(=O)[C@H](CCC(N)=O)NC(=O)[C@H](C)NC(=O)CNC1=O` [[Aib^6, Ile^12]-α-hANP[6-28]] (H-[Aib]CFGGRIDRIGAQSGLGCNSFRY-OH; disulfide 2-18): the “Degree of Decrease in Blood Pressure” value in series [2] was -90 ΔmmHg.
As for “H-Ala-Cys-Phe-Gly-Gly-Arg-Met-Asp-Arg-Ile-Gly-Ala-Gln-Ser-Gly-Leu-Gly-Cys-Asn-Ser-Phe-Arg-Tyr-OH”, the ring closure, isolated yield in series [1] (setting [3]) was determined as 14%.
With “H-Ile-Cys-Phe-Gly-Gly-Arg-Met-Asp-Arg-Ile-Gly-Ala-Gln-Ser-Gly-Leu-Gly-Cys-Asn-Ser-Phe-Arg-Tyr-OH”, the ring closure, isolated yield in series [1] (setting [3]) is 11%.
Compound “H-dAla-Cys-Phe-Gly-Gly-Arg-Met-Asp-Arg-Ile-Gly-Ala-Gln-Ser-Gly-Leu-Gly-Cys-Asn-Ser-Phe-Arg-Tyr-OH” had a ring closure, isolated yield in series [1] (setting [3]) of 17%.
Compound “H-Val-Cys-Phe-Gly-Gly-Arg-Met-Asp-Arg-Ile-Gly-Ala-Gln-Ser-Gly-Leu-Gly-Cys-Asn-Ser-Phe-Arg-Tyr-OH” yielded a ring closure, isolated yield in series [1] (setting [3]) of 16%.
In series [1] (50-membered ring, air/NH4OAc/NH3 pH 6.9, water, 0.056 mM, 25.0 °C), “H-Cys-Phe-Gly-Arg-Met-Asp-Arg-Ile-Gly-Ala-Gln-Ser-Gly-Leu-Gly-Cys-Asn-Ser-Phe-Arg-Tyr-OH” had a ring closure, isolated yield of 18%.
“H-Cys-Phe-Gly-Gly-Arg-Met-Asp-Arg-Ile-Gly-Ala-Gln-Ser-Gly-Leu-Gly-Cys-Asn-Ser-Phe-dArg-Tyr-OH” displayed a ring closure, isolated yield in series [1] (setting [3]) of 25%.
In turn, “H-Cys-Phe-Gly-Gly-Arg-DL-Chg-Asp-Arg-Ile-Gly-Ala-Gln-Ser-Gly-Leu-Gly-Cys-Asn-Ser-Phe-Arg-Tyr-OH” registered a ring closure, isolated yield in series [1] (setting [3]) of 38%.
The compound “H-Aib-Cys-Phe-Gly-Gly-Arg-Nle-Asp-Arg-Ile-Gly-Ala-Gln-Ser-Gly-Leu-Gly-Cys-Asn-Ser-Phe-Arg-Tyr-OH” came in with a ring closure, isolated yield in series [1] (setting [3]) of 14.4%.
Regarding “H-Aib-Cys-Phe-Gly-Gly-Arg-Leu-Asp-Arg-Ile-Gly-Ala-Gln-Ser-Gly-Leu-Gly-Cys-Asn-Ser-Phe-Arg-Tyr-OH”, in series [1] (setting [3]), the ring closure, isolated yield was determined as 22%.
“H-Achc-Cys-Phe-Gly-Gly-Arg-Met-Asp-Arg-Ile-Gly-Ala-Gln-Ser-Gly-Leu-Gly-Cys-Asn-Ser-Phe-Arg-Tyr-OH” came in with a ring closure, isolated yield in series [1] (setting [4]) of 22%.
On to “H-Cys-Phe-dAla-Gly-Arg-Met-Asp-Arg-Ile-Gly-Ala-Gln-Ser-Gly-Leu-Gly-Cys-Asn-Ser-Phe-Arg-Tyr-OH”, for which the ring closure, isolated yield in series [1] (53-membered ring, air/NH4OAc/NH3 pH 6.9, water, 0.053 mM, 25.0 °C) amounted to 16%.
Regarding “H-Aib-Cys-Phe-Gly-Gly-Arg-Met-Asp-Arg-Ile-Gly-Ala-Gln-Ser-Gly-Leu-Gly-Cys-Asn-Ser-Phe-Arg-Tyr-OH”, in series [1] (setting [4]), the ring closure, isolated yield is 12%.
Regarding `CC[C@H](C)[C@@H]1NC(=O)[C@H](CCCNC(=N)N)NC(=O)[C@H](CC(=O)O)NC(=O)[C@H](CCSC)NC(=O)[C@H](CCCNC(=N)N)NC(=O)CNC(=O)CNC(=O)[C@H](Cc2ccccc2)NC(=O)[C@@H](NC(=O)C(C)(C)N)CSSC[C@@H](C(=O)N[C@@H](CC(N)=O)C(=O)N[C@@H](CO)C(=O)N[C@@H](Cc2ccccc2)C(=O)N[C@@H](CCCNC(=N)N)C(=O)N[C@@H](Cc2ccc(O)cc2)C(=O)O)NC(=O)CNC(=O)[C@H](CC(C)C)NC(=O)CNC(=O)[C@H](CO)NC(=O)[C@H](CCC(N)=O)NC(=O)[C@H](C)NC(=O)CNC1=O` [[Aib^6]-α-hANP[6-28]] (H-[Aib]CFGGRMDRIGAQSGLGCNSFRY-OH; disulfide 2-18), the “Degree of Decrease in Blood Pressure” value in series [2] is listed as -70 ΔmmHg.
